The values that follow come from US7781596B1, “Substituted 2-phenylbenzimidazoles, the production thereof and their use” (Abbott Laboratories, priority 1998, dated 2010).

Each structure is given as a SMILES string. Where a name gives a salt, the structure may show the parent alone. Read-outs that look alike come from different tables or passages of the source.

For one data set, the system named is circulatory failure. As to conditions: S. Cuzzocrea et al., Br. J. Pharmacol. 1997, 121, 1065-1074; cited from earlier work.
For data set [1] the following is noted: pH 5.
Procedure: (§1) If the measured substance is not in the form of a water-soluble salt, it was dissolved in the minimum amount of dimethyl sulfoxide and then diluted with water (final dimethyl sulfoxide concentration≦1%), after which the pH was again adjusted.
A short description of data set [2]: Determination of the solubility in water. The note with it: solution adjusted to pH 5 to 6 with sodium acetate, DMSO <=1% if not a water-soluble salt.
Procedure: as §1

On to `NC(=O)c1cccc(N)c1` [3-aminobenzamide], for which, in the data set on circulatory failure, the “effects in a model of circulatory failure” value was “protective effects”.

`CCN(CC)CCOc1ccc(-c2nc3c(C(N)=O)cccc3[nH]2)cc1` [Example 2, 2-(4-(2-(N,N-Diethylamino)eth-1-yloxy)phenyl)benzimidazole-4-carboxamide×2 hydrochloride]: the solubility in water in data set [1] is given as greater than 0.5%.

For `COc1ccc(-c2nc3cccc(C(N)=O)c3[nH]2)cc1` [NU 1076], the solubility in water in data set [2] was less than 0.01%.
